Like-named read-outs stand apart in the source and are kept apart here. Non-standard residues stand in square brackets, D forms with d. Residues, ends and D or L forms follow the SMILES beside them. 1Nal = N[C@@H](Cc1cccc2ccccc12)C(=O)O; 2Nal = N[C@@H](Cc1ccc2ccccc2c1)C(=O)O; β3hI = CC[C@H](C)[C@H](N)CC(=O)O; Nle = CCCC[C@H](N)C(=O)O; Aib = CC(C)(N)C(=O)O; βAla = NCCC(=O)O
Tests used:
human PTH-1 receptor = target: T1, human PTH-1 receptor (Homo sapiens, UniProt Q03431); assay: Reporter gene assay (CRE-luciferase) for agonist activity in transiently transfected HEK-293 cells; assay type: cell-based; settings: for hPTHR-2/hPTHR-1 / Selectivity hPTHR-2/hPTHR-1: ratio of EC50 values; for hPTHR-2/hPTHR-1: selectivity for hPTH-1 receptor over hPTH-2 receptor; for Selectivity hPTHR-2/hPTHR-1: Table 4 comparison data
T1 construct: expressed in transfected cells; host or cells: HEK-293
T1 sequence (Q03431 27-593): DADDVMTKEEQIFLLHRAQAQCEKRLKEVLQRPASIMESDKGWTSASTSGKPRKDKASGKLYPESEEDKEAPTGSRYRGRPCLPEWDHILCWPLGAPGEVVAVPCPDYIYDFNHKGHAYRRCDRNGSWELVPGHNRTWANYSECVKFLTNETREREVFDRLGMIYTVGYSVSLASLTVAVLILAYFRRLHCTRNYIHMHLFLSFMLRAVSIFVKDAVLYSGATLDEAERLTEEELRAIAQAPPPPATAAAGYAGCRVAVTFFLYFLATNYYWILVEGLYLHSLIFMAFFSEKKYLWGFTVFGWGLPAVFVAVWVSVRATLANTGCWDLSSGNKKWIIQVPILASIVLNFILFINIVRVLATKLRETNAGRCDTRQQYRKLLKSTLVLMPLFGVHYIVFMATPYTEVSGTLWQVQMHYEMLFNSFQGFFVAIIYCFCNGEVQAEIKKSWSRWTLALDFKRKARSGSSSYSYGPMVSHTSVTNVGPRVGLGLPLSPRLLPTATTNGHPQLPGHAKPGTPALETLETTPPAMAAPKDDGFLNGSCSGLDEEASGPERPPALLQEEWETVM
Method in brief: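 Selectivity came from luciferase transcriptional reporter assays expressing human PTH-2 receptor. PTH-1 agonism used transiently transfected HEK-293 cells carrying SV40-promoter receptor and cAMP-responsive-element luciferase; 4-5 h compound exposure, lysis, luminescence, non-linear-regression EC50/efficacy; ≥3 independent runs, PTH (1-34) control each.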

human PTH-2 receptor = target: T2, human PTH-2 receptor (Homo sapiens, UniProt P49190); assay: Luciferase-based transcriptional reporter gene assay for selectivity; assay type: cell-based
T2 construct: expressed in transfected cells
T2 sequence (P49190 25-550): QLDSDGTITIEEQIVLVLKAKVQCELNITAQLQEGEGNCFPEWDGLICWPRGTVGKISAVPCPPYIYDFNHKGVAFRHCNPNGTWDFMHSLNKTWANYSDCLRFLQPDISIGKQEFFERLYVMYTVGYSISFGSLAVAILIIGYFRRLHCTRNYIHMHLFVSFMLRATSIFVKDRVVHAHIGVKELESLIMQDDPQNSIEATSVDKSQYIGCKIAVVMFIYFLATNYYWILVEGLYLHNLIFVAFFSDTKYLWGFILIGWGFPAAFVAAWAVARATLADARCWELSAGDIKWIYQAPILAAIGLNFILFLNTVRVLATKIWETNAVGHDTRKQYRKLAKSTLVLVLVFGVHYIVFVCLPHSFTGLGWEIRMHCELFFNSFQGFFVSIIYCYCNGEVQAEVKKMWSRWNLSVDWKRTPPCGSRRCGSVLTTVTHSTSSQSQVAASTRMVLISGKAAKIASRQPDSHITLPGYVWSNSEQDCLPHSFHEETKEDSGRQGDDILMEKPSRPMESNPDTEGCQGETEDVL
Description: Agonist activity of compounds on the human PTH-1 receptor was determined in a reporter gene assay by transiently transfecting HEK-293 cells with plasmids encoding human PTH-1 receptor under control of the SV40 promoter and a luciferase reporter gene under control of cAMP responsive elements (CRE). See Himmler et al, J. Recept. Res. 13 (1993) 79-94, for further guidance on this assay. Transfected cells were exposed to serial dilutions of compounds for 4-5 hours followed by lysis of cells, determination of luciferase activity, and determination of compound efficacies and EC50 values through non-linear regression.
PTH (1-34) was used as an internal control in each experiment and compounds were tested in at least three independent experiments. To determine selectivity, compounds were tested in luciferase-based transcriptional reporter gene assays expressing the human PTH-2 receptor.

[1] = Table 3, luciferase reporter gene assay, read-out: hPTHR-2 EC50

| EC50 (human PTH-2 receptor; [1]) [nM] | EC50 (human PTH-1 receptor; Table 3, HEK-293 cells, CRE-luciferase, 4-5 hours exposure, read-out: hPTHR-1 EC50) [nM] | Structure (SMILES) | EC50 (human PTH-1 receptor) [nM] | hPTHR-2/hPTHR-1 (human PTH-1 receptor; Table 3) | potency at the hPTH-1 receptor compared to PTH (1-34) (human PTH-1 receptor; in words) | EC50 (human PTH-2 receptor) [nM] | Selectivity hPTHR-2/hPTHR-1 (human PTH-1 receptor) |
| --- | --- | --- | --- | --- | --- | --- | --- |
|  |  | CCCC[C@H](NC(=O)[C@H](CC(C)C)NC(=O)[C@H](CCC(N)=O)NC(=O)[C@@H](NC(=O)[C@H](CCC(=O)O)NC(=O)[C@H](CO)NC(=O)[C@@H](NC(=O)[C@@H](N)CO)C(C)C)[C@@H](C)CC)C(=O)N[C@@H](Cc1c[nH]cn1)C(=O)N[C@@H](CC(N)=O)C(=O)N[C@@H](CC(C)C)C(=O)NCC(=O)N[C@@H](CCCCN)C(=O)N[C@@H](Cc1c[nH]cn1)C(=O)N[C@@H](CC(C)C)C(=O)N[C@@H](CC(N)=O)C(=O)N[C@@H](CO)C(=O)N[C@H](CC(=O)N[C@@H](CCC(=O)O)C(=O)N[C@@H](CCCNC(=N)N)C(=O)N[C@H](C(=O)N[C@@H](CCC(=O)O)C(=O)N[C@@H](Cc1cccc2ccccc12)C(=O)N[C@@H](CC(C)C)C(=O)N[C@@H](CCCNC(=N)N)C(=O)N[C@@H](CCCCN)C(=O)N[C@@H](CC(C)C)C(=O)N[C@@H](CC(C)C)C(=O)N[C@@H](CCC(N)=O)C(=O)N[C@@H](CC(=O)O)C(=O)N[C@H](C(N)=O)C(C)C)C(C)C)[C@@H](C)CC [SEQ ID NO: 1, [Nle^8, β-hIle^18,1-Nal^23, Leu^27] hPTH-(1-31)-NH2] (H-SVSEIQL[Nle]HNLGKHLNS[β3hI]ERVE[1Nal]LRKLLQDV-NH2; N-terminus assumed) | 0.09 | 339 | Improved potency | 32 |  |
|  |  | CCCC[C@H](NC(=O)CCNC(=O)[C@H](CC(N)=O)NC(=O)[C@H](CC(C)C)NC(=O)[C@H](Cc1c[nH]cn1)NC(=O)[C@H](CCCCN)NC(=O)CNC(=O)[C@H](CC(C)C)NC(=O)[C@H](CC(N)=O)NC(=O)[C@H](Cc1c[nH]cn1)NC(=O)[C@H](CCCC)NC(=O)[C@H](CC(C)C)NC(=O)[C@H](CCC(N)=O)NC(=O)[C@@H](NC(=O)[C@H](CCC(=O)O)NC(=O)[C@H](CO)NC(=O)[C@@H](NC(=O)C(C)(C)N)C(C)C)[C@@H](C)CC)C(=O)N[C@@H](CCC(=O)O)C(=O)N[C@@H](CCCNC(=N)N)C(=O)N[C@H](C(=O)N[C@@H](CCC(=O)O)C(=O)N[C@@H](Cc1cccc2ccccc12)C(=O)N[C@@H](CC(C)C)C(=O)N[C@@H](CCCNC(=N)N)C(=O)N[C@@H](CCCCN)C(=O)N[C@@H](CC(C)C)C(=O)N[C@@H](CC(C)C)C(=O)N[C@@H](CCC(N)=O)C(=O)N[C@@H](CC(=O)O)C(=O)N[C@H](C(=O)N[C@@H](Cc1c[nH]cn1)C(=O)N[C@@H](CC(N)=O)C(=O)N[C@@H](Cc1ccccc1)C(N)=O)C(C)C)C(C)C [SEQ ID NO: 2, [Aib^1, Nle^8,18, β-Ala^17,1-Nal^23, Leu^27] hPTH (1-34)-NH2] (H-[Aib]VSEIQL[Nle]HNLGKHLN[βAla][Nle]ERVE[1Nal]LRKLLQDVHNF-NH2) | 0.06 | 566 |  | 31 | 566 |
|  |  | CCCC[C@H](NC(=O)[C@H](CC(C)C)NC(=O)[C@H](CCC(N)=O)NC(=O)[C@@H](NC(=O)[C@H](CCC(=O)O)NC(=O)[C@H](CO)NC(=O)[C@@H](NC(=O)C(C)(C)N)C(C)C)[C@@H](C)CC)C(=O)N[C@@H](Cc1c[nH]cn1)C(=O)N[C@@H](CC(N)=O)C(=O)N[C@@H](CC(C)C)C(=O)NCC(=O)N[C@@H](CCCCN)C(=O)N[C@@H](Cc1c[nH]cn1)C(=O)N[C@@H](CC(C)C)C(=O)N[C@@H](CC(N)=O)C(=O)N[C@@H](CO)C(=O)N[C@H](CC(=O)N[C@@H](CCC(=O)O)C(=O)N[C@@H](CCCNC(=N)N)C(=O)N[C@H](C(=O)N[C@@H](CCC(=O)O)C(=O)N[C@@H](Cc1cccc2ccccc12)C(=O)N[C@@H](CC(C)C)C(=O)N[C@@H](CCCNC(=N)N)C(=O)N[C@@H](CCCCN)C(=O)N[C@@H](CC(C)C)C(=O)N[C@@H](CC(C)C)C(=O)N[C@@H](CCC(N)=O)C(=O)N[C@@H](CC(=O)O)C(=O)N[C@H](C(N)=O)C(C)C)C(C)C)[C@@H](C)CC [SEQ ID NO: 5, [Aib^1, Nle^8, β-hIle^18,1-Nal^23, Leu^27] hPTH (1-31)-NH2] (H-[Aib]VSEIQL[Nle]HNLGKHLNS[β3hI]ERVE[1Nal]LRKLLQDV-NH2) | 0.05 | 387 |  | 18 | 387 |
|  |  | CCCC[C@H](NC(=O)CCNC(=O)[C@H](CCCCN)NC(=O)[C@H](CC(C)C)NC(=O)[C@H](Cc1c[nH]cn1)NC(=O)[C@H](CCCCN)NC(=O)CNC(=O)[C@H](CC(C)C)NC(=O)[C@H](CO)NC(=O)[C@H](Cc1c[nH]cn1)NC(=O)[C@H](CCCC)NC(=O)[C@H](CC(C)C)NC(=O)[C@H](CCC(N)=O)NC(=O)[C@@H](NC(=O)[C@H](CCC(=O)O)NC(=O)[C@H](CO)NC(=O)[C@@H](NC(=O)C(C)(C)N)C(C)C)[C@@H](C)CC)C(=O)N[C@@H](CCC(=O)O)C(=O)N[C@@H](CCCNC(=N)N)C(=O)N[C@H](C(=O)N[C@@H](CCC(=O)O)C(=O)N[C@@H](Cc1cccc2ccccc12)C(=O)N[C@@H](CC(C)C)C(=O)N[C@@H](CCCNC(=N)N)C(=O)N[C@@H](CCCCN)C(=O)N[C@@H](CC(C)C)C(=O)N[C@@H](CC(C)C)C(=O)N[C@@H](CCC(N)=O)C(=O)N[C@@H](CCCNC(=N)N)C(=O)N[C@H](C(=O)N[C@@H](Cc1c[nH]cn1)C(=O)N[C@@H](CCC(=O)O)C(=O)N[C@@H](CCC(=O)O)C(N)=O)C(C)C)C(C)C [SEQ ID NO: 6, [Aib^1, Nle^8,18, Ser^10, Lys^16, β-Ala^17,1-Nal^23, Leu^27, Arg^30, Glu^33, Glu^34] hPTH (1-34)-NH2] (H-[Aib]VSEIQL[Nle]HSLGKHLK[βAla][Nle]ERVE[1Nal]LRKLLQRVHEE-NH2; N-terminus assumed) | 0.03 | 267 |  | 7 |  |
| 18 |  | CCCC[C@H](NC(=O)[C@H](CO)NC(=O)[C@H](CC(N)=O)NC(=O)[C@H](CC(C)C)NC(=O)[C@H](Cc1c[nH]cn1)NC(=O)[C@H](CCCCN)NC(=O)CNC(=O)[C@H](CC(C)C)NC(=O)[C@H](CC(N)=O)NC(=O)[C@H](Cc1c[nH]cn1)NC(=O)[C@H](CCCC)NC(=O)[C@H](CC(C)C)NC(=O)[C@H](CCC(N)=O)NC(=O)[C@@H](NC(=O)[C@H](CCC(=O)O)NC(=O)[C@H](CO)NC(=O)[C@@H](NC(=O)[C@@H](N)CO)C(C)C)[C@@H](C)CC)C(=O)NCCC(=O)N[C@@H](CCCNC(=N)N)C(=O)N[C@H](C(=O)N[C@@H](CCC(=O)O)C(=O)N[C@@H](Cc1cccc2ccccc12)C(=O)N[C@@H](CC(C)C)C(=O)N[C@@H](CCCNC(=N)N)C(=O)N[C@@H](CCCCN)C(=O)N[C@@H](CC(C)C)C(=O)N[C@@H](CC(C)C)C(=O)N[C@@H](CCC(N)=O)C(=O)N[C@@H](CC(=O)O)C(=O)N[C@H](C(=O)N[C@@H](Cc1c[nH]cn1)C(=O)N[C@@H](CC(N)=O)C(=O)N[C@@H](Cc1ccccc1)C(N)=O)C(C)C)C(C)C [SEQ ID NO: 11, [Nle^8,18, β-Ala^19,1-Nal^23, Leu^27] hPTH-(1-34)-NH2] (H-SVSEIQL[Nle]HNLGKHLNS[Nle][βAla]RVE[1Nal]LRKLLQDVHNF-NH2; N-terminus assumed) |  | 69 |  |  |  |
| 46 | 0.22 | CCCC[C@H](NC(=O)CCNC(=O)[C@H](CC(N)=O)NC(=O)[C@H](CC(C)C)NC(=O)[C@H](Cc1c[nH]cn1)NC(=O)[C@H](CCCCN)NC(=O)CNC(=O)[C@H](CC(C)C)NC(=O)[C@H](CC(N)=O)NC(=O)[C@H](Cc1c[nH]cn1)NC(=O)[C@H](CCCC)NC(=O)[C@H](CC(C)C)NC(=O)[C@H](CCC(N)=O)NC(=O)[C@@H](NC(=O)[C@H](CCC(=O)O)NC(=O)[C@H](CO)NC(=O)[C@@H](NC(=O)C(C)(C)N)C(C)C)[C@@H](C)CC)C(=O)N[C@@H](CCC(=O)O)C(=O)N[C@@H](CCCNC(=N)N)C(=O)N[C@H](C(=O)N[C@@H](CCC(=O)O)C(=O)N[C@@H](Cc1ccc2ccccc2c1)C(=O)N[C@@H](CC(C)C)C(=O)N[C@@H](CCCNC(=N)N)C(=O)N[C@@H](CCCCN)C(=O)N[C@@H](CCCCN)C(=O)N[C@@H](CC(C)C)C(=O)N[C@@H](CCC(N)=O)C(=O)N[C@@H](CC(=O)O)C(=O)N[C@H](C(=O)N[C@@H](Cc1c[nH]cn1)C(=O)N[C@@H](CC(N)=O)C(=O)N[C@@H](Cc1ccccc1)C(N)=O)C(C)C)C(C)C [SEQ ID NO: 13, [Aib^1, Nle^8,18, β-Ala^17,2-Nal^23] hPTH (1-34)-NH2] (H-[Aib]VSEIQL[Nle]HNLGKHLN[βAla][Nle]ERVE[2Nal]LRKKLQDVHNF-NH2; N-terminus assumed) |  | 213 |  |  |  |

From US20110195900A1, “PEPTIDIC PTH RECEPTOR AGONISTS” (FERRING B.V., priority 2008, published 2011)
